# Measurements as given in patent EP0596929B1, “AMIDE DERIVATIVES OF ANTIBIOTIC A 40926” (GRUPPO LEPETIT S.p.A., priority 1991, dated 1993).
# Test system: highly glycopeptide-resistant enterococci
# Conditions: summary of Table III
row,Compound,in vitro activity against highly glycopeptide-resistant enterococci (in words)
1,Teicoplanin,highly resistant
2,CN[C@H](CC(C)C)C(=O)N[C@H]1C(=O)N[C@@H](CC(N)=O)C(=O)N[C@H]2C(=O)N[C@H]3C(=O)N[C@H](C(=O)N[C@H](C(=O)O)c4cc(O)cc(O)c4-c4cc3ccc4O)[C@H](O)c3ccc(c(Cl)c3)Oc3cc2cc(c3O[C@@H]2O[C@H](CO)[C@@H](O)[C@H](O)[C@H]2O[C@H]2C[C@](C)(N)[C@H](O)[C@H](C)O2)Oc2ccc(cc2Cl)[C@H]1O [vancomycin],highly resistant
